Values quoted from earlier work in US12161617B2, “Methocarbamol compositions and related methods” (Exela Sterile Medicines LLC, priority 2014, dated 2024).

COc1ccccc1OCC(O)COC(N)=O (centres unmarked) [methocarbamol, 3-(2-methoxyphenoxy)-1,2-propanediol 1-carbamate]
differences with respect to methocarbamol absorption (patients undergoing maintenance haemodialysis vs normal subjects): no significant differences | relative systemic availability in patients (renal dialysis patients relative to normal subjects): 113%
